“Also recorded” adds a separate entry of the source.
Biological target: T1, HDAC8 (Homo sapiens, UniProt Q9BY41)
T1 sequence (Q9BY41 1-377): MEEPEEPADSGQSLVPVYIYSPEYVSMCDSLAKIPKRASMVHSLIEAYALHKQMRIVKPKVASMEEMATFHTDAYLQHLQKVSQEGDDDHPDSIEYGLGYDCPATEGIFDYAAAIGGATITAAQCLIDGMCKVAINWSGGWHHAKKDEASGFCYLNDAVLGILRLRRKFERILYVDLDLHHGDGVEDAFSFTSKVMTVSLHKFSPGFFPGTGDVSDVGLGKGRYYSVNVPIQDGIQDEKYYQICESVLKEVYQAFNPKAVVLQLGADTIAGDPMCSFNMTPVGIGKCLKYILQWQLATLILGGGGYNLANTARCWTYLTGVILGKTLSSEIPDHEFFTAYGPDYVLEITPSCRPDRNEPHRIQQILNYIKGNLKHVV
Assay: Change in cellular protein abundance (TMT proteomics) in Kelly cells
Assay type: cell-based
Design: relative change in relative protein abundance with treatment of Kelly cells; endogenous in cells; host or cells: Kelly cells
Conditions: FIG. 3A

Cc1ncsc1-c1ccc(CNC(=O)[C@@H]2C[C@@H](O)CN2C(=O)[C@@H](NC(=O)C2(F)CC2)C(C)(C)C)c(OCCCCCN(CCc2c[nH]c3ccccc23)Cc2ccc(/C=C/C(=O)NO)cc2)c1 [Compound 7, (2S,4R)—N-(2-((5-((2-(1H-indol-3-yl)ethyl)(4-((E)-3-(hydroxyamino)-3-oxoprop-1-en-1-yl)benzyl)amino)pentyl)oxy)-4-(4-methylthiazol-5-yl)benzyl)-1-((S)-2-(1-fluorocyclopropane-1-carboxamido)-3,3-dimethylbutanoyl)-4-hydroxypyrrolidine-2-carboxamide]
HDAC8 protein levels, relative protein abundance compared to DMSO control: promote degradation; also recorded: significant and selective reduction
